Reference: paper PMC2796434 (Bioorganic & medicinal chemistry, 2008)

Molecular target: T1, GV sPLA2 (Homo sapiens, UniProt P39877)
T1 sequence (P39877 21-138): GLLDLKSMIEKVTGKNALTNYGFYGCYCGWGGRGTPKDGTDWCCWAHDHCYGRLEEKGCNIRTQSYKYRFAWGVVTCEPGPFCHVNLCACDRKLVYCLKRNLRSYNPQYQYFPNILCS
Experiment: mixed-micelle radiolabelled phospholipid
Type: biochemical

Structure (SMILES): CCCC[C@H](CCC(=O)O)NC(=O)CCCCCCc1ccccc1 [compound 42, (R)-4-(7-Phenylheptanamido)octanoic acid]
- GV sPLA2: 0.003 ± 0.0004 mole fraction (XI(50))
